IC50 data for one compound are collected here from PMC12070378 (Microbial Biotechnology, 2025).

This experiment addresses T1, Sortase A (SrtA) (Staphylococcus aureus, UniProt Q2FV99).
T1 sequence (Q2FV99 60-206): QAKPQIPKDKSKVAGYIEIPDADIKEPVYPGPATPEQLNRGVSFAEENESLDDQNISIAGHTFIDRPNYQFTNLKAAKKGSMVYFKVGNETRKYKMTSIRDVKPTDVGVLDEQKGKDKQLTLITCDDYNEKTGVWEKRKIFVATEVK
Nature of the experiment: FRET cleavage assay of Abz-LPATG-Dap. Format: biochemical.

`CC(=O)/C=C/c1ccc(O)c(O)c1` [OSC, osmundacetone] gave an IC50 of 7.24 µM. That is a single-digit micromolar value.

The term IC50 denotes the concentration needed to halve the response being measured. Low values mean higher potency, high ones lower potency.
